By inhibition is commonly meant the relative decrease from the control value, in per cent. Broadly, the CC50 is the concentration giving 50% cytotoxicity. The term EC50 denotes the concentration at which the effect is half-maximal.

One data set relates to Zika virus. The data set is described as follows: Antiviral activity against Zika virus infected in African green monkey Vero cells assessed as inhibition of viral RNA replication at 10 uM after 24 hrs by RT-PCR method relative to control.
Settings: not given
The format is functional.
For the molecule `COc1cccc(C=NCCNc2ccnc3cc(Cl)ccc23)c1O`, the inhibition at 10 µM came to 74%.

Take `O=[N+]([O-])c1cccc(C=NCCNc2ccnc3cc(Cl)ccc23)c1`: the inhibition at 10 µM turned out to be 59%.

As for `Fc1ccc(C=NCCNc2ccnc3cc(Cl)ccc23)cc1`, the inhibition at 10 µM was found to be 75%.

On to `CCN(CC)CCCC(C)Nc1ccnc2cc(Cl)ccc12` (stereo not drawn) [CHLOROQUINE], for which the inhibition at 10 µM amounted to 47%.

Consider `Clc1ccc2c(NCCN=Cc3ccc(Br)cc3)ccnc2c1`, for which the inhibition at 10 µM was 52%.

As to `Oc1ccccc1C=NCCNc1ccnc2cc(Cl)ccc12`, the inhibition at 10 µM was determined as 57%.

For the molecule `COc1cc(C=NCCNc2ccnc3cc(Cl)ccc23)cc(OC)c1OC`, the inhibition at 10 µM was found to be 41%.

With `Clc1ccc2c(NCCN=Cc3ccccn3)ccnc2c1`, the inhibition at 10 µM is 70%.

On to `NCCNc1ccnc2cc(Cl)ccc12`, for which the inhibition at 10 µM was found to be 43%.

With `Clc1ccc2c(NCCN=Cc3ccccc3)ccnc2c1`, the inhibition at 10 µM was found to be 76%.

As to `COc1ccc(OC)c(C=NCCNc2ccnc3cc(Cl)ccc23)c1`, the inhibition at 10 µM is 51%.

Take `O=[N+]([O-])c1ccc(C=NCCNc2ccnc3cc(Cl)ccc23)s1`: the inhibition at 10 µM was 78%.

Consider `Cc1ccc(C=NCCNc2ccnc3cc(Cl)ccc23)cc1`, for which the inhibition at 10 µM was determined as 66%.

Turning to `Clc1ccc2c(NCCN=Cc3cccnc3)ccnc2c1`, the inhibition at 10 µM was found to be 80%.

For the molecule `COc1ccccc1C=NCCNc1ccnc2cc(Cl)ccc12`, the inhibition at 10 µM was determined as 70%.

Take `Clc1ccc2c(NCCN=Cc3ccncc3)ccnc2c1`: the inhibition at 10 µM was 74%.

As to `COc1cccc(OC)c1C=NCCNc1ccnc2cc(Cl)ccc12`, the inhibition at 10 µM was 75%.

With `O=[N+]([O-])c1ccc(C=NCCNc2ccnc3cc(Cl)ccc23)o1`, the inhibition at 10 µM is 72%.

On to `O=[N+]([O-])c1ccc(C=NCCNc2ccnc3cc(Cl)ccc23)cc1`, for which the inhibition at 10 µM was determined as 82%.

System in another data set: not listed separately
The data set is described as follows: Cytotoxicity against African green monkey Vero cells after 72 hrs by XTT assay. The settings on record: chlorocebus sabaeus. Type of data set: cell-based. For orientation: Tetrazolium assays rely on reduction of a dye to a coloured formazan, in cell work by metabolically active cells.
As to `COc1cccc(C=NCCNc2ccnc3cc(Cl)ccc23)c1O`, the midpoint of cytotoxicity, the CC50 at 72 h, lay at 487 µM.

`Fc1ccc(C=NCCNc2ccnc3cc(Cl)ccc23)cc1` showed a CC50 at 72 h of 534 µM.

`Clc1ccc2c(NCCN=Cc3ccccc3)ccnc2c1`: the 50% cytotoxic concentration (CC50) at 72 h worked out at 489 µM.

As for `O=[N+]([O-])c1ccc(C=NCCNc2ccnc3cc(Cl)ccc23)s1`, the half-maximal cytotoxic concentration (CC50) at 72 h amounted to 478 µM.

As for `Clc1ccc2c(NCCN=Cc3cccnc3)ccnc2c1`, the half-maximal cytotoxic concentration (CC50) at 72 h was 578 µM.

In turn, `Clc1ccc2c(NCCN=Cc3ccncc3)ccnc2c1` yielded a half-maximal cytotoxic concentration (CC50) at 72 h of 571 µM.

For the molecule `COc1cccc(OC)c1C=NCCNc1ccnc2cc(Cl)ccc12`, the CC50 at 72 h is 458 µM.

Take `O=[N+]([O-])c1ccc(C=NCCNc2ccnc3cc(Cl)ccc23)o1`: the CC50 at 72 h turned out to be 412 µM.

On to `O=[N+]([O-])c1ccc(C=NCCNc2ccnc3cc(Cl)ccc23)cc1`, for which the CC50 at 72 h is 512 µM.

Another data set has as its system Zika virus. Briefly: Antiviral activity against Zika virus infected in African green monkey Vero cells assessed as inhibition of viral RNA replication after 24 hrs by RT-PCR method.
Settings: not given
The format is functional.
With `COc1cccc(C=NCCNc2ccnc3cc(Cl)ccc23)c1O`, the half-maximal effective concentration (EC50) was determined as 1.6 µM.

On to `Fc1ccc(C=NCCNc2ccnc3cc(Cl)ccc23)cc1`, for which the EC50 was 1.5 µM.

In the case of `Clc1ccc2c(NCCN=Cc3ccccc3)ccnc2c1`, the concentration giving a half-maximal response (EC50) was determined as 1.2 µM.

On to `O=[N+]([O-])c1ccc(C=NCCNc2ccnc3cc(Cl)ccc23)s1`, for which the EC50 worked out at 1.5 µM.

Turning to `Clc1ccc2c(NCCN=Cc3cccnc3)ccnc2c1`, the concentration giving a half-maximal response (EC50) worked out at 3.4 µM.

Take `Clc1ccc2c(NCCN=Cc3ccncc3)ccnc2c1`: the EC50 was determined as 1.5 µM.

`COc1cccc(OC)c1C=NCCNc1ccnc2cc(Cl)ccc12`: the concentration giving a half-maximal response (EC50) is 1.5 µM.

As for `O=[N+]([O-])c1ccc(C=NCCNc2ccnc3cc(Cl)ccc23)o1`, the EC50 is 0.8 µM.

Regarding `O=[N+]([O-])c1ccc(C=NCCNc2ccnc3cc(Cl)ccc23)cc1`, the EC50 was 1.5 µM.

The test system of the next data set is Vero. The data set is described as follows: Cytotoxicity against African green monkey Vero cells assessed as reduction in cell viability at 10 uM after 72 hrs by XTT assay relative to control. The settings on record: chlorocebus sabaeus. Type of data set: cell-based.
Turning to `Clc1ccc2c(NCCN=Cc3c(Cl)cccc3Cl)ccnc2c1`, the Activity is on record as above 80%.

Turning to `Oc1cccc(C=NCCNc2ccnc3cc(Cl)ccc23)c1O`, the Activity was above 80%.

With `Clc1ccc(C=NCCNc2ccnc3cc(Cl)ccc23)c(Cl)c1`, the Activity is listed as above 80%.

In another data set the test system is Zika virus. Briefly: Potency index, ratio of chloroquine EC50 to test compound EC50 for Zika virus. The format is functional.
Settings: not given
On to `COc1cccc(C=NCCNc2ccnc3cc(Cl)ccc23)c1O`, for which the “Ratio EC50” value is 10.

As for `Fc1ccc(C=NCCNc2ccnc3cc(Cl)ccc23)cc1`, the “Ratio EC50” value is reported as 10.

Turning to `Clc1ccc2c(NCCN=Cc3ccccc3)ccnc2c1`, the “Ratio EC50” value is on record as 10.

Turning to `O=[N+]([O-])c1ccc(C=NCCNc2ccnc3cc(Cl)ccc23)s1`, the “Ratio EC50” value is listed as 10.

Regarding `Clc1ccc2c(NCCN=Cc3cccnc3)ccnc2c1`, the “Ratio EC50” value is recorded as 5.

With `Clc1ccc2c(NCCN=Cc3ccncc3)ccnc2c1`, the “Ratio EC50” value is on record as 10.

Turning to `COc1cccc(OC)c1C=NCCNc1ccnc2cc(Cl)ccc12`, the “Ratio EC50” value is recorded as 10.

Regarding `O=[N+]([O-])c1ccc(C=NCCNc2ccnc3cc(Cl)ccc23)o1`, the “Ratio EC50” value stood at 10.

Take `O=[N+]([O-])c1ccc(C=NCCNc2ccnc3cc(Cl)ccc23)cc1`: the “Ratio EC50” value was 10.

System in a further data set: not listed separately
The data set is described as follows: Selectivity index, ratio of CC50 for African green monkey Vero cells to EC50 for Zika virus. Type of data set: toxicity. To be noted: read-out: Ratio CC50/EC50.
On to `COc1cccc(C=NCCNc2ccnc3cc(Cl)ccc23)c1O`, for which the selectivity ratio was 304.

On to `Fc1ccc(C=NCCNc2ccnc3cc(Cl)ccc23)cc1`, for which the selectivity ratio came out at 356.

On to `Clc1ccc2c(NCCN=Cc3ccccc3)ccnc2c1`, for which the selectivity ratio worked out at 407.

On to `O=[N+]([O-])c1ccc(C=NCCNc2ccnc3cc(Cl)ccc23)s1`, for which the selectivity ratio worked out at 318.

Regarding `Clc1ccc2c(NCCN=Cc3cccnc3)ccnc2c1`, the selectivity ratio came to 170.

For `Clc1ccc2c(NCCN=Cc3ccncc3)ccnc2c1`, the selectivity ratio was 380.

Take `COc1cccc(OC)c1C=NCCNc1ccnc2cc(Cl)ccc12`: the selectivity ratio was 305.

Turning to `O=[N+]([O-])c1ccc(C=NCCNc2ccnc3cc(Cl)ccc23)o1`, the selectivity ratio came to 515.

As for `O=[N+]([O-])c1ccc(C=NCCNc2ccnc3cc(Cl)ccc23)cc1`, the selectivity ratio was determined as 341.

Values taken from ChEMBL document CHEMBL3997789, “N-(2-(arylmethylimino)ethyl)-7-chloroquinolin-4-amine derivatives, synthesized by thermal and ultrasonic means, are endowed with anti-Zika virus activity” (Eur J Med Chem, 2017).
